Source: article PMC9147171, “Pharmacokinetic/Pharmacodynamic Evaluation of a New Purine-2,6-Dione Derivative in Rodents with Experimental Autoimmune Diseases” (Pharmaceutics, 2022)

Legend:
PDE7A [1] = assay: PDE inhibition assay, PDE7A (previous investigations); assay type: biochemical; details: ratio of IC50 values, vs GRMS-55
PDE4B = assay: PDE inhibition assay, PDE4B (previous investigations); assay type: biochemical; details: ratio of IC50 values, vs GRMS-55
hrPDE1B = target: T1, hrPDE1B (Homo sapiens, UniProt Q01064); assay: PDE-Glo catalytic activity assay, PDE1B; assay type: biochemical
T1 construct: purchased SignalChem, Richmond, Canada
Experimental: The inhibitory activity of compound 34 against hrPDE1B and hrPDE3A (SignalChem, Richmond, Canada) was assessed using the PDE-Glo™ catalytic activity assay (Promega Corporation, Madison, WI, USA). It was performed on 384-well plates according to manufacturer’s instructions with slight modifications. Solutions of both PDEs were prepared by diluting their stock solutions in the PDE-Glo™ Reaction Buffer and aliquots of 6.5 μL were added to the wells. A stock solution of the tested compound was prepared in DMSO at a concentration of 10 mM and serially diluted with the same solvent. The obtained solutions were further diluted with PDE-Glo™ Reaction Buffer (1:5, v/v) and aliquots of 1 μL were transferred to the respective wells. Then, the mixture was incubated for 10 min at 30 °C on a heated plate shaker (Grant Instruments, Cambridge, United Kingdom). The reaction was started by the addition of 2.5 μL of a 0.2 μM cAMP solution to each well and the plate was incubated for 10 min at 30 °C on a heated plate shaker. Moreover, for each series, respective control reactions were performed: no-substrate, no-enzyme negative control reactions; no-enzyme positive control reactions containing substrate; and no-inhibitor positive control reactions containing both the substrate and PDE. After incubation, the reaction was stopped by adding 2.5 μL of the PDE-Glo™ Termination Buffer. A volume of 2.5 μL of the PDE-Glo™ Detection Buffer was transferred to each well and the plate was incubated for 20 min at room temperature. Finally, an aliquot of 10 μL of the PDE-Glo Kinase® Reagent was added to the wells. The plate was incubated for 10 min at room temperature and luminescence was measured with a luminometer (BMG Labtech, Ortenberg, Germany). For each inhibitor concentration, four independent measurements were performed. The resulting data were expressed as percent of an uninhibited control and plotted against the inhibitor concentration. The IC50 values were estimated by nonlinear regression using ADAPT5 software (BMSR, Los Angeles, CA, USA).

PDE7A [2] = details: read-out: IC50 (µM) Against PDE Isoform PDE7A; cited from earlier work
[3] = test system: MOG35–55-induced EAE in mice; assay: MOG35-55-induced experimental autoimmune encephalomyelitis (EAE) in mice, PK/PD EAE progression model; assay type: in vivo, female C57BL/6 mice
Experimental: Female C57BL/6 mice were immunized by subcutaneous injection of MOG35–55 peptide emulsified in complete Freund’s adjuvant and IP administration of pertussis toxin solution in PBS (Hooke Laboratories, Inc., Lawrence, MA, USA). Mice developed EAE 8–14 days after immunization and on day 14 they were randomly divided into two groups. The study group (n = 6) was administered with compound 34 solution at an IP dose of 50 mg·kg^−1 once daily for 15 days, whereas the control group (n = 6) received vehicle alone. To follow the progress of the disease, clinical score (CS) (scale 0–5), including “in-between” scores (i.e., 0.5, 1.5, 2.5, 3.5, and 4.5), and body weight of mice were evaluated according to the protocol provided by Hooke Laboratories, Inc.. Using the Mann–Whitney U test, it was verified that there is no significant difference in CS between the groups on the day of randomization. […]
The model assumes that some time is required for the compound to distribute from the serum to the site of action before it interacts with a biological target and exerts the pharmacological effect. […] The progression of disease, which was measured by CS, is stimulated by the sum of the signals from 20th and 38th transit compartments that allows us to capture the onset of the disease, the temporary remission, and the relapse of the disease that is a characteristic feature of this animal model of MS [30]. […]

[4] = test system: ConA-induced hepatitis in mice; assay: ConA-induced hepatitis in mice; assay type: in vivo, BALB/c mice; details: 50 mg·kg^−1 IP 30 min prior to ConA
Experimental: ConA was dissolved in saline for injection at a concentration of 2 mg·mL^−1. The mice were given IP doses of compound 34 or the equivalent volume of vehicle (control group) and, 30 min later, animals were given an IV injection of ConA (20 mg·kg^−1) via tail vein. An additional group of mice was given vehicle alone IP followed by an IV injection of saline. The mice were sacrificed by exsanguination at 2, 8, and 24 h post-ConA dosing. Blood samples were collected and handled as described above.
Serum aspartate transaminase (AST) and alanine transaminase (ALT) activities were analyzed using the chemistry analyzer BS-800 (Shenzhen Mindray Bio-medical Electronics Co., Ltd., Shenzhen, China). Cytokine levels in mouse serum (TNFα, IL-4, IL-6, and interferon (IFN)γ) were quantified by a Magnetic Luminex® Assay (R&D Systems, Inc, Minneapolis, MN, USA) using a Magpix platform (Luminex Corp., Austin, TX, USA).

[5] = test system: LPS-induced endotoxemia in rats; parameters: method as in PMID 29407965; details: single IP dose of 50 mg·kg^−1, at 1.5 h post-LPS dosing; cited from earlier work

T1 sequence (Q01064 whole entry): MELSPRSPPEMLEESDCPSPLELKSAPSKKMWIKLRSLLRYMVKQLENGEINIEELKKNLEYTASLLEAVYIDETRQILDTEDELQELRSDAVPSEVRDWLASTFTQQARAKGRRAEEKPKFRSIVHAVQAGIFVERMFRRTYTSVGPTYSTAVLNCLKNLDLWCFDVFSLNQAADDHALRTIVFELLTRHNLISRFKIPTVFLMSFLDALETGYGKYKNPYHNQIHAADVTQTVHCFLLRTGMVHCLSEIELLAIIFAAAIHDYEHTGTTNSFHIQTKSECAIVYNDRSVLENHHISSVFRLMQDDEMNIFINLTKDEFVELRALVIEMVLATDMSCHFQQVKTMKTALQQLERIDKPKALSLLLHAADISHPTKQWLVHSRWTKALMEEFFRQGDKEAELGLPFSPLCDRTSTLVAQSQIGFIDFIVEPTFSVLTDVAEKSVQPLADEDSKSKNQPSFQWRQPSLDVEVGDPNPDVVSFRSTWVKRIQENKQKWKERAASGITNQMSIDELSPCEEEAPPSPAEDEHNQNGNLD

Cn1c(=O)c2c(nc(NCCc3ccccc3)n2CCCC(=O)NN=Cc2ccc(O)c(O)c2O)n(C)c1=O [Compound 34, 4-(1,3-dimethyl-2,6-dioxo-8-(phenethylamino)-2,3,6,7-tetrahydro-1H-purin-7-yl)-N′-(2,3,4-trihydroxybenzylidene)butanehydrazide]
times more potent as a PDE7A inhibitor compared to GRMS-55 (PDE7A [1]): about two
times more active as a PDE4B inhibitor compared to GRMS-55 (PDE4B): 19 times
IC50 (hrPDE1B; human recombinant PDE1B, CV% in brackets, read-out: IC50 (µM) Against PDE Isoform (CV%) PDE1B): 0.21 µM
times more potent than GRMS-55 in inhibiting PDE1B (hrPDE1B; ratio of IC50 values, vs GRMS-55): 12 times
inhibitory activity against PDE1B, times higher than that of vinpocetine (hrPDE1B; ratio of IC50 values, vs vinpocetine): around 36 times
IC50 (PDE7A [2]): 3.2 µM
mean relative body weight, experimental vs control group ([3]; 50 mg·kg^−1 IP once daily for 15 days): not significantly different
IC50 at 50 mg/kg ([3]; Mus musculus, ip, 50 mg·kg^−1 IP once daily for 15 days from day 14, clinical score, PK/PD model estimate, read-out: IC50_CS Compound 34 concentration resulting in 50% inhibition of disease progression, Estimate (CV%)): 7 ng/mL
serum IFNγ level compared to the control group ([4]; 2 h after ConA injection): not significantly different
serum IL-4 concentration, lower compared to the control group ([4]; 2 h after ConA injection): 76%
serum IL-6 level compared to the control group ([4]; 2 h after ConA injection): not significantly different
serum TNFα concentration, lower compared to the control group ([4]; 2 h after ConA injection): 34%
ALT serum activity, reduction compared to the control group ([4]; 8 h post-ConA injection): 73%
AST serum activity, reduction compared to the control group ([4]; 8 h post-ConA injection): 59%
serum IFNγ concentration, lower compared to the control group ([4]; 24 h post-ConA dosing): 36%
serum IL-4 level, treatment vs control group ([4]; 24 h post-ConA dosing): not different
serum IL-6 level, treatment vs control group ([4]; 24 h post-ConA dosing): not different
reduction of maximum plasma TNFα concentrations [5]: 84%
